The subject of data set [1] is HiBiT-tagged Target C protein in K562 cells. Kind of data set: HiBiT protein abundance assay, Target C. In kind it is cell-based, human. The following applies: HiBiT-modified K562 cells, 24 hours, luminescence. The essentials: (§1)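 K562 lines with the endogenous target HiBiT-tagged, seeded in IMDM+1% FBS, got a 10-point 3-fold dilution series (top final 10 μM, DMSO ≤0.25%) for 24 hours at 37° C. Lytic LgBiT luminescence was normalized against unmodified-K562 and DMSO-only controls, and IC50 was interpolated at 50% from a four-parameter logistic fit.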
(The HiBiT peptide binds its large partner to form an active luciferase.)

Data set [2] relates to HiBiT-tagged HTT protein in K562 cells. Kind of data set: HiBiT protein abundance assay, HTT. In kind it is cell-based, human. Conditions: HiBiT-modified K562 cells, 24 hours, luminescence. The essentials:
as §1

The nature of data set [3]: Cell Titer Glo 2.0 cell viability assay. The following applies: human, K562 cells. (ATP-based viability assays read luminescence as a measure of living cells.)
Description: Compounds described herein were screened for toxicity in K562 (human chronic myelogenous leukemia) cells using a Cell Titer Glo 2.0 assay.
• Promega CellTiter-Gbo® 2.0 Cell Viability Assay (cat #G9241) • Corning 384-well TC-treated microplates (cat #3570)
Cells were plated at 500 cells/well (K562 cells) in 45 μL of IMDM supplemented with 10% FBS in a 384-well opaque plate. Wells containing only medium were used as a blank control. Test compounds (e.g., compounds of Formula (I), (II), and (III)) were first serially diluted in DMSO then diluted 1:100 with IMDM+10% FBS. The final concentration of DMSO was 0.1% in each well. The cells were incubated for 72 hours at 37° C. and 5% CO2 before assaying with Cell Titer Glo 2.0 reagent.
In a further data set the test system is MYB CJ mRNA. Kind of data set: Gene panel canonical junction qPCR assay, MYB. Format: cell-based. Conditions: Homo sapiens, larger gene panel, read-out: MYB IC50 (decrease in CJ mRNA levels). The essentials:
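A673 or K562 cells treated 24 h with 11-point 3-fold dilutions (top 10 µM, ≤0.25% DMSO) at 37 °C. Canonical exon-junction mRNA measured by probe-based RT-qPCR, normalized to GAPDH, GUSB or PPIA and DMSO (2^−ΔΔCt), converted to percent response over a fixed ΔCt window; IC50 from 4-parameter fit.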
On the technique in general: Real-time PCR tracks product formation cycle by cycle.

Each structure is given as a SMILES string. Where a name gives a salt, the structure may show the parent alone.

Usually IC50 stands for the point on the concentration scale where inhibition reaches its midpoint. Broadly, the GI50 is the concentration at which growth is held to half of that of the control. For the compound `Cc1cc(-c2cc3ncn(C4CCNCC4)c(=O)c3s2)cc2cn(C)nc12` [Compound 236, 6-(2,7-dimethyl-2H-indazol-5-yl)-3-(piperidin-4-yl)thieno[3,2-d]pyrimidin-4(3H)-one], the IC50 in data set [1] was 100 to 1000 nM; in data set [2] it was less than 100 nM; in the data set on MYB CJ mRNA, 100 to 1000 nM. In data set [3], this compound came in with a GI50 at 72 h of 100 to 1000 nM.
On to `Cc1cc(-c2cc3ncn(C4CCN(C)CC4)c(=O)c3s2)cc2cn(C)nc12` [Compound 237, 6-(2,7-dimethyl-2H-indazol-5-yl)-3-(1-methylpiperidin-4-yl)thieno[3,2-d]pyrimidin-4(3H)-one], for which the IC50 (in data set [1]; in data set [2]; in the data set on MYB CJ mRNA) was 100 to 1000 nM in each case. This compound also registered a GI50 at 72 h in data set [3] of 100 to 1000 nM.
Regarding `Cc1cn2nc(-c3cc4ncn(C5CCNCC5)c(=O)c4s3)cc(C)c2n1` [Compound 238, 6-(2,8-dimethylimidazo[1,2-b]pyridazin-6-yl)-3-(piperidin-4-yl)thieno[3,2-d]pyrimidin-4(3H)-one], the IC50 in data set [1] was 1000 to 10000 nM; in data set [2] it was 100 to 1000 nM; in the data set on MYB CJ mRNA, 100 to 1000 nM. This compound also yielded a GI50 at 72 h in data set [3] of 1000 to 10000 nM.
Take `Cc1cn2nc(-c3cc4ncn(C5CCN(C)CC5)c(=O)c4s3)cc(C)c2n1` [Compound 239, 6-(2,8-dimethylimidazo[1,2-b]pyridazin-6-yl)-3-(1-methylpiperidin-4-yl)thieno[3,2-d]pyrimidin-4(3H)-one]: the IC50 in data set [1] was greater than 10000 nM; in data set [2], 1000 to 10000 nM; in the data set with MYB CJ mRNA it was 1000 to 10000 nM. In addition, the GI50 at 72 h in data set [3] was 1000 to 10000 nM.
As to `Cc1cn2cc(-c3nc4sc(C5CCNCC5)cc4c(=O)[nH]3)cc(F)c2n1` [Compound 250, 2-(8-fluoro-2-methylimidazo[1,2-a]pyridin-6-yl)-6-(piperidin-4-yl)thieno[2,3-d]pyrimidin-4(3H)-one], the IC50 (in data set [1]; in data set [2]; with MYB CJ mRNA) was 100 to 1000 nM each time. The GI50 at 72 h in data set [3] lay in the range of 100 to 1000 nM.
For the compound `Cc1nc(-c2nc3ncn(C4CCNCC4)c(=O)c3s2)cc2cn(C)nc12` [Compound 251, 2-(2,7-dimethyl-2H-pyrazolo[3,4-c]pyridin-5-yl)-6-(piperidin-4-yl)thiazolo[4,5-d]pyrimidin-7(6H)-one], the figures for the IC50 (in data set [1]; in data set [2]; with MYB CJ mRNA) were greater than 10000 nM, 1000 to 10000 nM and 1000 to 10000 nM, respectively. The compound further returned a GI50 at 72 h in data set [3] of 1000 to 10000 nM.
`Cn1cc2cc(-c3nc4ncn(C5CCNCC5)c(=O)c4s3)c(O)cc2n1` [Compound 253, 2-(6-hydroxy-2-methyl-2H-indazol-5-yl)-6-(piperidin-4-yl)thiazolo[4,5-d]pyrimidin-7(6H)-one, hydrochloride]: the IC50 (in data set [1]; in data set [2]; in the data set on MYB CJ mRNA) was 1000 to 10000 nM in each case. Besides, the GI50 at 72 h in data set [3] is greater than 10000 nM.
On to `Cc1cn2cc(-c3nc4sc(C5CCN(C)CC5)cc4c(=O)[nH]3)cc(F)c2n1` [Compound 256, 2-(8-fluoro-2-methylimidazo[1,2-a]pyridin-6-yl)-6-(1-methylpiperidin-4-yl)thieno[2,3-d]pyrimidin-4(3H)-one], for which the IC50 (in data set [1]; in data set [2]; in the data set with MYB CJ mRNA) was greater than 10000 nM in each case. The same compound had a GI50 at 72 h in data set [3] greater than 10000 nM.
As for `Cn1cc2cc(-c3cc4ncn(C5CCNCC5)c(=O)c4s3)cc(F)c2n1` [Compound 257], the IC50 (in data set [1]; in data set [2]; in the data set with MYB CJ mRNA) was 1000 to 10000 nM in each case. Further, the GI50 at 72 h in data set [3] was 1000 to 10000 nM.
In the case of `Cn1cc2cc(-c3cc4ncn(C5CCNCC5)c(=O)c4s3)c(F)cc2n1` [Compound 258], the IC50 fell in the range of 1000 to 10000 nM in data set [1], 100 to 1000 nM in data set [2] and 100 to 1000 nM in the data set on MYB CJ mRNA. The GI50 at 72 h in data set [3] is 1000 to 10000 nM.
With `Cn1cc2cc(-c3cc4ncn(C5CCNCC5)c(=O)c4s3)cc(C#N)c2n1` [Compound 259], the IC50 in data set [1] fell in the range of 1000 to 10000 nM; in data set [2], 100 to 1000 nM; in the data set with MYB CJ mRNA, 100 to 1000 nM. The GI50 at 72 h in data set [3] lay within 1000 to 10000 nM.
`COc1cc(-c2cc3ncn(C4CCNCC4)c(=O)c3s2)cnn1` [Compound 260]: the IC50 (in data set [1]; in data set [2]; in the data set with MYB CJ mRNA) was 1000 to 10000 nM in each case. In addition, the GI50 at 72 h in data set [3] lay within 1000 to 10000 nM.
For `Cc1cn2cc(-c3cc4ncn(C5CCNCC5)c(=O)c4s3)cc(C)c2n1` [Compound 261], the IC50 in data set [1] is 1000 to 10000 nM; in data set [2], 100 to 1000 nM; in the data set with MYB CJ mRNA it was 100 to 1000 nM. The GI50 at 72 h in data set [3] is 1000 to 10000 nM.
As to `Cc1cn2nc(-c3cc4ncn(C5CCNCC5)c(=O)c4s3)cc2c(C)n1` [Compound 262], the IC50 (in data set [1]; in data set [2]; in the data set with MYB CJ mRNA) was 100 to 1000 nM each time. The compound further had a GI50 at 72 h in data set [3] of 100 to 1000 nM.
`COc1cc(-c2cc3ncn(C4CCNCC4)c(=O)c3s2)ccn1` [Compound 263]: the IC50 (in data set [1]; in data set [2]; with MYB CJ mRNA) was 1000 to 10000 nM each time. The GI50 at 72 h in data set [3] fell in the range of 1000 to 10000 nM.
Consider `Cc1cn2cc(-c3cc4ncn(C5CCNCC5)c(=O)c4s3)ncc2n1` [Compound 264], for which the IC50 (in data set [1]; in data set [2]; in the data set with MYB CJ mRNA) was 1000 to 10000 nM each time. This compound showed a GI50 at 72 h in data set [3] of 1000 to 10000 nM.
`Cc1cn2cc(-c3cc4ncn(C5CCN(C)CC5)c(=O)c4s3)cc(F)c2n1` [Compound 265, 6-{8-fluoro-2-methylimidazo[1,2-a]pyridin-6-yl}-3-(1-methylpiperidin-4-yl)thieno[3,2-d]pyrimidin-4-one]: the IC50 (in data set [1]; in data set [2]; in the data set on MYB CJ mRNA) was 100 to 1000 nM each time. Moreover, the GI50 at 72 h in data set [3] was in the range of 100 to 1000 nM.
Regarding `Cc1cn2nc(-c3nc4sc(N5CCNCC5)nc4c(=O)[nH]3)cc2c(C)n1` [Compound 267], the IC50 (in data set [1]; in data set [2]; with MYB CJ mRNA) was 100 to 1000 nM each time. Moreover, the GI50 at 72 h in data set [3] fell in the range of 100 to 1000 nM.
As to `Cc1cn2nc(-c3nc4sc(N5CCN(C)CC5)nc4c(=O)[nH]3)cc2c(C)n1` [Compound 268], the concentration for half-maximal inhibition (IC50) (in data set [1]; in data set [2]; with MYB CJ mRNA) was greater than 10000 nM each time. In data set [3], this compound yielded a GI50 at 72 h greater than 10000 nM.
Turning to `Cc1cn2cc(-c3cc4ncn(N5CCNCC5)c(=O)c4s3)cc(F)c2n1` [Compound 269, 6-{8-fluoro-2-methylimidazo[1,2-a]pyridin-6-yl}-3-(piperazin-1-yl)thieno[3,2-d]pyrimidin-4-one], the IC50 (in data set [1]; in data set [2]; in the data set on MYB CJ mRNA) was 100 to 1000 nM in each case. The compound also came in with a GI50 at 72 h in data set [3] of 100 to 1000 nM.
Consider `Cc1cn2cc(-c3cc4ncn(C5CCNC5)c(=O)c4s3)cc(F)c2n1` (stereo not drawn) [Compound 270, 6-{8-fluoro-2-methylimidazo[1,2-a]pyridin-6-yl}-3-(pyrrolidin-3-yl)thieno[3,2-d]pyrimidin-4-one], for which the IC50 (in data set [1]; in data set [2]; with MYB CJ mRNA) was 100 to 1000 nM each time. The compound also gave a GI50 at 72 h in data set [3] of 100 to 1000 nM.
With `Cc1nc(-c2cc3ncn(C4CCNCC4)c(=O)c3s2)cc2cn(C)nc12` [Compound 271], the IC50 in data set [1] was 1000 to 10000 nM; in data set [2] it was 1000 to 10000 nM; in the data set with MYB CJ mRNA, 100 to 1000 nM. This compound showed a 50% growth inhibitory concentration (GI50) at 72 h in data set [3] of 1000 to 10000 nM.
Turning to `Cc1cn2cc(-c3cc4ncn(C5CCNCC5(F)F)c(=O)c4s3)cc(F)c2n1` (stereo not drawn) [Compound 274, 3-(3,3-difluoropiperidin-4-yl)-6-{8-fluoro-2-methylimidazo[1,2-a]pyridin-6-yl}thieno[3,2-d]pyrimidin-4-one], the IC50 (in data set [1]; in data set [2]; in the data set on MYB CJ mRNA) was greater than 10000 nM in each case. The GI50 at 72 h in data set [3] is greater than 10000 nM.
In the case of `Cc1cn2cc(-c3cc4ncn(C5CCCNCC5)c(=O)c4s3)cc(F)c2n1` (stereo not drawn) [Compound 275, 3-(azepan-4-yl)-6-{8-fluoro-2-methylimidazo[1,2-a]pyridin-6-yl}thieno[3,2-d]pyrimidin-4-one], the IC50 (in data set [1]; in data set [2]; in the data set on MYB CJ mRNA) was 100 to 1000 nM each time. The same compound registered a GI50 at 72 h in data set [3] of 100 to 1000 nM.
For `Cc1cn2cc(-c3cc4ncn(C5=CCNCC5)c(=O)c4s3)cc(F)c2n1` [Compound 276, 6-{8-fluoro-2-methylimidazo[1,2-a]pyridin-6-yl}-3-(1,2,3,6-tetrahydropyridin-4-yl)thieno[3,2-d]pyrimidin-4-one], the IC50 (in data set [1]; in data set [2]; in the data set with MYB CJ mRNA) was 100 to 1000 nM each time. For the same compound, the GI50 at 72 h in data set [3] lay within 100 to 1000 nM.
As for `Cc1cn2cc(-c3cc4ncn(C5CNCCC5=O)c(=O)c4s3)cc(F)c2n1` (stereo not drawn) [Compound 279, 3-(6-{8-fluoro-2-methylimidazo[1,2-a]pyridin-6-yl}-4-oxothieno [3,2-d]pyrimidin-3-yl)piperidin-4-one], the IC50 (in data set [1]; in data set [2]; in the data set on MYB CJ mRNA) was greater than 10000 nM each time. Further, the GI50 at 72 h in data set [3] was greater than 10000 nM.
As for `Cc1cn2cc(N3CCc4cc(C5CCNCC5)sc4C3=O)cc(F)c2n1` [Compound 800, 6-[8-fluoro-2-methylimidazo[1,2-a]pyridin-6-yl]-2-(piperidin-4-yl)-4H,5H-thieno[2,3-c]pyridin-7-one], the IC50 (in data set [1]; in data set [2]; in the data set on MYB CJ mRNA) was greater than 10000 nM throughout. In addition, in data set [3], the GI50 at 72 h was greater than 10000 nM.

Values taken from patent publication US20240366612A1, “COMPOUNDS AND METHODS FOR MODULATING NUCLEIC ACID SPLICING” (REMIX THERAPEUTICS INC., priority 2021, published 2024).
